In PubChem BioAssay AID2060329 (Molecular Pharmacology Branch, DTP, NCI, 2025):
“And” between values parts separate entries of the source, which are not always exact repeats. Equal entries are not always repeated.

Test system: MCF7 multi-cell spheroids with HUVEC/MSC, viability
Experiment: Anticancer human tumor MCF7 cell line growth inhibition [IpAb];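 note: spheroids exposed to agents for seven days before readout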
Conditions: for viability, T/C: stronger effect = lower value
Summary of the method: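 Multi-cell spheroids of 60% tumour cells, 25% HUVEC and 15% MSC in ultra-low-attachment U-bottom wells, treated with agents combined with ipatasertib or abemaciclib. Half-log ranges top out near clinical Cmax, or 10 microM when Cmax is unknown.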

[1] = curve of first compound, second compound 0.1 µM
[2] = curve of first compound, second compound 0.316 µM
[3] = curve of first compound, second compound 1 µM
[4] = curve of first compound, second compound 3.16 µM
[5] = curve of first compound, second compound 10 µM
[6] = second compound 0.1 µM, first compound 0.00949 µM
[7] = second compound 0.1 µM, first compound 0.03 µM
[8] = second compound 0.1 µM, first compound 0.0949 µM
[9] = second compound 0.1 µM, first compound 0.3 µM
[10] = second compound 0.1 µM, first compound 0.949 µM
[11] = second compound 0.1 µM, first compound 3 µM
[12] = second compound 0.316 µM, first compound 0.00949 µM
[13] = second compound 0.316 µM, first compound 0.03 µM
[14] = second compound 0.316 µM, first compound 0.0949 µM
[15] = second compound 0.316 µM, first compound 0.3 µM
[16] = second compound 0.316 µM, first compound 0.949 µM
[17] = second compound 0.316 µM, first compound 3 µM
[18] = second compound 1 µM, first compound 0.00949 µM
[19] = second compound 1 µM, first compound 0.03 µM
[20] = second compound 1 µM, first compound 0.0949 µM
[21] = second compound 1 µM, first compound 0.3 µM
[22] = second compound 1 µM, first compound 0.949 µM
[23] = second compound 1 µM, first compound 3 µM

CC(C)n1nc(-c2ccc3oc(N)nc3c2)c2c(N)ncnc21 + CC(C)NCC(C(=O)N1CCN(c2ncnc3c2C(C)CC3O)CC1)c1ccc(Cl)cc1
IC50 [1]: 0.0139 µM
IC50 [2]: 0.00842 µM
IC50 [3]: 0.00259 µM
IC50 [4]: 0.000594 µM
IC50 [5]: < 0.000316 µM
viability, T/C (second compound 0.1 µM, first compound 0.000316 µM): 88.7%
viability, T/C (second compound 0.1 µM, first compound 0.001 µM): 92.6%
viability, T/C (second compound 0.1 µM, first compound 0.00316 µM): 77.4%
viability, T/C (second compound 0.1 µM, first compound 0.01 µM): 58.9%
viability, T/C (second compound 0.1 µM, first compound 0.0316 µM): 29.5%
viability, T/C (second compound 0.1 µM, first compound 0.1 µM): 13.1%
viability, T/C (second compound 0.316 µM, first compound 0.000316 µM): 82.5%
viability, T/C (second compound 0.316 µM, first compound 0.001 µM): 85.9%
viability, T/C (second compound 0.316 µM, first compound 0.00316 µM): 65.4%
viability, T/C (second compound 0.316 µM, first compound 0.01 µM): 50.3%
viability, T/C (second compound 0.316 µM, first compound 0.0316 µM): 17.9%
viability, T/C (second compound 0.316 µM, first compound 0.1 µM): 9.55%
viability, T/C (second compound 1 µM, first compound 0.000316 µM): 77.5%
viability, T/C (second compound 1 µM, first compound 0.001 µM): 64.8%
viability, T/C (second compound 1 µM, first compound 0.00316 µM): 48.4%
viability, T/C (second compound 1 µM, first compound 0.01 µM): 21.1%
viability, T/C (second compound 1 µM, first compound 0.0316 µM): 8.63%
viability, T/C (second compound 1 µM, first compound 0.1 µM): 6.29%
viability, T/C (second compound 3.16 µM, first compound 0.000316 µM): 56.1%
viability, T/C (second compound 3.16 µM, first compound 0.001 µM): 42.6%
viability, T/C (second compound 3.16 µM, first compound 0.00316 µM): 36.5%
viability, T/C (second compound 3.16 µM, first compound 0.01 µM): 9.09%
viability, T/C (second compound 3.16 µM, first compound 0.0316 µM): 6.78%
viability, T/C (second compound 3.16 µM, first compound 0.1 µM): 7.35%
viability, T/C (second compound 10 µM, first compound 0.000316 µM): 48.4%
viability, T/C (second compound 10 µM, first compound 0.001 µM): 45.5%
viability, T/C (second compound 10 µM, first compound 0.00316 µM): 17.5%
viability, T/C (second compound 10 µM, first compound 0.01 µM): 8.22%
viability, T/C (second compound 10 µM, first compound 0.0316 µM): 8.47%
viability, T/C (second compound 10 µM, first compound 0.1 µM): 6.95%

Cn1cnc2c(F)c(Nc3ccc(Br)cc3Cl)c(C(=O)NOCCO)cc21 + CCN1CCN(Cc2ccc(Nc3ncc(F)c(-c4cc(F)c5nc(C)n(C(C)C)c5c4)n3)nc2)CC1
IC50 (curve of first compound, second compound 0.01 µM): > 3 µM
IC50 (curve of first compound, second compound 0.0316 µM): > 3 µM
IC50 [1]: > 3 µM
IC50 [2]: > 3 µM
IC50 [3]: > 3 µM
viability, T/C (second compound 0.01 µM, first compound 0.00949 µM): 104%
viability, T/C (second compound 0.01 µM, first compound 0.03 µM): 121%
viability, T/C (second compound 0.01 µM, first compound 0.0949 µM): 103%
viability, T/C (second compound 0.01 µM, first compound 0.3 µM): 113%
viability, T/C (second compound 0.01 µM, first compound 0.949 µM): 125%
viability, T/C (second compound 0.01 µM, first compound 3 µM): 100%
viability, T/C (second compound 0.0316 µM, first compound 0.00949 µM): 94.4%
viability, T/C (second compound 0.0316 µM, first compound 0.03 µM): 113%
viability, T/C (second compound 0.0316 µM, first compound 0.0949 µM): 109%
viability, T/C (second compound 0.0316 µM, first compound 0.3 µM): 116%
viability, T/C (second compound 0.0316 µM, first compound 0.949 µM): 119%
viability, T/C (second compound 0.0316 µM, first compound 3 µM): 99%
viability, T/C [6]: 130%
viability, T/C [7]: 120%
viability, T/C [8]: 117%
viability, T/C [9]: 127%
viability, T/C [10]: 127%
viability, T/C [11]: 113%
viability, T/C [12]: 119%
viability, T/C [13]: 132%
viability, T/C [14]: 132%
viability, T/C [15]: 126%
viability, T/C [16]: 120%
viability, T/C [17]: 108%
viability, T/C [18]: 107%
viability, T/C [19]: 110%
viability, T/C [20]: 107%
viability, T/C [21]: 95.5%
viability, T/C [22]: 88.5%
viability, T/C [23]: 88.5%

COc1c(OCCCN2CCOCC2)ccc2c3n(c(=NC(=O)c4cnc(N)nc4)nc12)CCN3
viability, T/C (compound 0.00316 µM): 89.3% and 87.5%
viability, T/C (compound 0.01 µM): 80.2% and 84.9%
viability, T/C (compound 0.0316 µM): 64.7% and 59.9%
viability, T/C (compound 0.1 µM): 32% and 36.9%
viability, T/C (compound 0.316 µM): 14% and 10.5%
viability, T/C (compound 1 µM): 14.2% and 13.4%
IC50 (curve of compound): 0.0519 µM

Cn1cnc2c(F)c(Nc3ccc(Br)cc3Cl)c(C(=O)NOCCO)cc21
viability, T/C (compound 0.00949 µM): 97.5% and 94.6%
viability, T/C (compound 0.03 µM): 102% and 98%
viability, T/C (compound 0.0949 µM): 105% and 97.7%
viability, T/C (compound 0.3 µM): 103% and 116%
viability, T/C (compound 0.949 µM): 107% and 102%
viability, T/C (compound 3 µM): 111% and 109%
IC50 (curve of compound): > 3 µM

Cn1cnc2c(F)c(Nc3ccc(Br)cc3Cl)c(C(=O)NOCCO)cc21 + CC(C)NCC(C(=O)N1CCN(c2ncnc3c2C(C)CC3O)CC1)c1ccc(Cl)cc1
IC50 [1]: > 3 µM
IC50 [2]: > 3 µM
IC50 [3]: 1.41 µM
IC50 [4]: < 0.00949 µM
IC50 [5]: < 0.00949 µM
viability, T/C [6]: 87.8%
viability, T/C [7]: 89.6%
viability, T/C [8]: 92.5%
viability, T/C [9]: 86.2%
viability, T/C [10]: 95%
viability, T/C [11]: 82.5%
viability, T/C [12]: 80.8%
viability, T/C [13]: 86.2%
viability, T/C [14]: 89.8%
viability, T/C [15]: 77.9%
viability, T/C [16]: 82.5%
viability, T/C [17]: 67%
viability, T/C [18]: 58.7%
viability, T/C [19]: 73.4%
viability, T/C [20]: 67.4%
viability, T/C [21]: 50.9%
viability, T/C [22]: 54.4%
viability, T/C [23]: 44.7%
viability, T/C (second compound 3.16 µM, first compound 0.00949 µM): 43%
viability, T/C (second compound 3.16 µM, first compound 0.03 µM): 48.5%
viability, T/C (second compound 3.16 µM, first compound 0.0949 µM): 43.5%
viability, T/C (second compound 3.16 µM, first compound 0.3 µM): 38.4%
viability, T/C (second compound 3.16 µM, first compound 0.949 µM): 40.8%
viability, T/C (second compound 3.16 µM, first compound 3 µM): 31.3%
viability, T/C (second compound 10 µM, first compound 0.00949 µM): 30.7%
viability, T/C (second compound 10 µM, first compound 0.03 µM): 41.4%
viability, T/C (second compound 10 µM, first compound 0.0949 µM): 37.5%
viability, T/C (second compound 10 µM, first compound 0.3 µM): 34.8%
viability, T/C (second compound 10 µM, first compound 0.949 µM): 35.5%
viability, T/C (second compound 10 µM, first compound 3 µM): 27.5%
